Data on ten compounds can be found in US11827628B2, “Compositions and methods for inhibition of the JAK pathway” (Rigel Pharmaceuticals, Inc., priority 2005, dated 2023).

Each structure is given as a SMILES string.

Assay [1] relates to IL-4 stimulated expression of CD23 in human Ramos B cells (JAK-1 and JAK-3). Put plainly: Assay for Ramos B-Cell Line Stimulated with IL-4 (CD23 upregulation, FACS). To be noted: Ramos B-cell line stimulated with IL-4; CD23 expression by FACS; read-out: IC50, Example 41. In kind it is cell-based. In outline: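 Read-out is surface CD23 by FACS after anti-CD23-PE staining, giving IC50. Before this, cells were stimulated 20-24 h with 50 units/mL (final) human IL-4, following 1 h compound or vehicle pre-treatment at 37 °C; log-phase Ramos B cells, 5×10^4 per well in 5% serum RPMI.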
On the technique in general: In flow cytometry, cells or beads pass a laser one at a time.

The subject of assay [2] is Primary human T-cells. Put plainly: Primary Human T-Cell Proliferation Assay Stimulated with IL-2 (CellTiter-Glo). It counts as cell-based. To be noted: primary human T-cell proliferation stimulated with IL-2; read-out: IC50, Example 42. In outline: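 IC50 derived from CellTiter-Glo ATP signal after 72 hours of IL-2-driven proliferation at 37° C. Cells: primary human T-cells from blood, stimulated beforehand 3-4 days on anti-CD3/anti-CD28 with IL-2, then rested from IL-2 before compound exposure in duplicate; IL-2-free wells served as unstimulated control.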

As a reminder, the IC50 is the concentration that gives 50% inhibition.

For `Cc1cc(COc2ccc(Nc3nc(Nc4ccc(C)c(S(N)(=O)=O)c4)ncc3F)cc2Cl)no1` [Compound I-221, N2-(3-Aminosulfonyl-4-methylphenyl)-N4-[3-chloro-4-(5-methylisoxazol-3-yl)methyleneoxyphenyl]-5-fluoro-2,4-pyrimidinediamine], the IC50 in assay [1] was found to be 344 nM; in assay [2], 2680 nM.

On to `Cc1cc(COc2ccc(Nc3nc(Nc4ccc(C)c(S(N)(=O)=O)c4)ncc3F)cc2F)no1` [Compound I-222, N2-(3-Aminosulfonyl-4-methylphenyl)-5-fluoro-N4-[3-fluoro-4-(5-methylisoxazol-3-yl)methyleneoxyphenyl]-2,4-pyrimidinediamine], for which the IC50 in assay [1] turned out to be 33.1 nM; in assay [2], 582 nM.

On to `Cc1cc(COc2ccc(Nc3nc(Nc4cc(Cl)c(C)c(S(N)(=O)=O)c4)ncc3F)cc2F)no1` [Compound I-223, N2-(3-Aminosulfonyl-5-chloro-4-methylphenyl)-5-fluoro-N4-[3-fluoro-4-(5-methylisoxazol-3-yl)methyleneoxyphenyl]-2,4-pyrimidinediamine], for which the IC50 in assay [1] was determined as 88 nM; in assay [2], 625 nM.

For `Cc1cc(COc2ccc(Nc3nc(Nc4cc(C)c(F)c(S(N)(=O)=O)c4)ncc3F)cc2F)no1` [Compound I-224, N2-(3-Aminosulfonyl-4-fluoro-5-methylphenyl)-5-fluoro-N4-[3-fluoro-4-(5-methylisoxazol-3-yl)methyleneoxyphenyl]-2,4-pyrimidinediamine], the values for the IC50 in assay [1] and in assay [2] were 36.1 nM and 194 nM, respectively.

With `Cc1noc(COc2ccc(Nc3nc(Nc4ccc(S(N)(=O)=O)cc4)ncc3F)cc2)n1` [Compound I-231, N2-(4-Aminosulfonylphenyl)-5-fluoro-N4-[4-(3-methyl-1,2,4-oxadiazol-5-yl)methyleneoxyphenyl]-2,4-pyrimidinediamine], the IC50 in assay [1] is 94.7 nM; in assay [2] it was 290 nM.

As to `Cc1cc(COc2ccc(Nc3nc(Nc4ccc(F)c(S(N)(=O)=O)c4)ncc3F)cc2)no1` [Compound I-233, N2-(3-Aminosulfonyl-4-fluorophenyl)-5-fluoro-N4-[4-(5-methylisoxazol-3-yl)methyleneoxyphenyl]-2,4-pyrimidinediamine], the IC50 in assay [1] was 148 nM; in assay [2], 377 nM.

As for `Cc1cc(COc2ccc(Nc3nc(Nc4ccc(C)c(S(N)(=O)=O)c4)ncc3F)cc2C)no1` [Compound I-234, N2-(3-Aminosulfonyl-4-methylphenyl)-5-fluoro-N4-[3-methyl-4-(5-methylisoxazol-3-yl)methyleneoxyphenyl]-2,4-pyrimidinediamine], the IC50 was determined as 102 nM in assay [1] and 1010 nM in assay [2].

Consider `CNS(=O)(=O)c1cc(Nc2ncc(F)c(Nc3ccc(OCc4cc(C)on4)cc3)n2)ccc1C` [Compound I-235, 5-Fluoro-N2-[3-(N-methyl)aminosulfonyl-4-methylphenyl]-N4-[4-(5-methylisoxazol-3-yl)methyleneoxyphenyl]-2,4-pyrimidinediamine], for which the IC50 in assay [1] came to 178 nM; in assay [2] it was 470 nM.

In the case of `Cc1cc(COc2ccc(Nc3nc(Nc4ccc(F)c(S(N)(=O)=O)c4)ncc3F)cc2C)no1` [Compound I-237, N2-(3-Aminosulfonyl-4-fluorophenyl)-5-fluoro-N4-[3methyl-4-(5-methylisoxazol-3-yl)methyleneoxyphenyl]-2,4-pyrimidinediamine], the figures for the IC50 in assay [1] and in assay [2] were 147 nM and 2040 nM, respectively.

In the case of `Cc1cc(COc2ccc(Nc3nc(Nc4cccc(S(N)(=O)=O)c4)ncc3F)cc2C)no1` [Compound I-238, N2-(3-Aminosulfonylphenyl)-5-fluoro-N4-[3-methyl-4-(5-methylisoxazol-3-yl)methyleneoxyphenyl]-2,4-pyrimidinediamine], the IC50 in assay [1] was 165 nM; in assay [2], 456 nM.
